Like-named read-outs stand apart in the source and are kept apart here. Where a SMILES comes first, the peptide text is derived from it. Bridges are numbered along the chain shown (N, C = ends). [ ]: non-standard residue; d: D form. The star is where a group is joined. DOTA = O=C(O)CN1CCN(CC(=O)O)CCN(CC(=O)*)CCN(CC(=O)O)CC1; dPhe(4-NHCONH2) = NC(=O)Nc1ccc(C[C@@H](N)C(=O)O)cc1; Phe(4-Cl) = N[C@@H](Cc1ccc(Cl)cc1)C(=O)O
Tests used:
[1] = set-up: method as in doi:10.1007/BF02040048, PMID 16411740, PMID 16644751; conditions: coordination with DOTA chelator; cited from earlier work
[2] = system: non-tumor-bearing immunocompetent FVB mice; conditions: mouse, in vivo, 1 h
[3] = system: AR42J, PC-3 PIP and KB tumor cells; assay: In vitro cell uptake of Ln-DTPA complexes; format: cell-based; conditions: all tumor cell lines, 1 h and 4 h incubation
Protocol: A mixture of equal molar amounts of the lanthanide chloride salts (100 nM stock solutions of ^natLuCl3, ^natTbCl3, ^natGdCl3, and ^natEuCl3, diluted in saline with an adjusted pH value to 3.5‒4.0) was prepared to obtain a final concentration of 10 pmol/mL (2.5 pmol/mL per lanthanide salt) and tested with AR42J, PC-3 PIP and KB tumor cells according to the same protocol as described for the Ln-labeled biomolecules (Supplementary Material). Analogous in vitro cell uptake studies were also performed with lanthanide metal complexes of diethylenetriaminepentaacetic acid (DTPA, Sigma Aldrich Chemie, Steinheim, Germany) to obtain a final concentration of 10 pmol/mL (2.5 pmol/mL per lanthanide complex) (Supplementary Material).
Methods: The same experimental setting as described for Ln-labeled biomolecules was applied to perform uptake and internalization studies with the lanthanide DTPA complexes (Ln-DTPA; Ln = ^natLu, ^natTb, ^natGd and ^natEu). The lanthanides were dissolved in 0.05 M hydrochloric acid and further diluted in a 1:5 (v/v) mixture of sodium acetate (0.5 M) and hydrochloric acid (0.05 M), pH ~4.5. A 10-fold molar excess of DTPA (5 mM, aq.) was added to each lanthanide dilution and the reaction mixtures were incubated for 10 min at 95 °C. The complexed lanthanides were further diluted in saline with an adjusted pH value to 3.5-4.0 for in vitro experiments. The applied solution was a mixture of the four Ln-DTPA complexes at a final concentration of 0.4 µM. Of these mixtures, 25 μL were added to the well with the corresponding tumor cells. The tumor cells were incubated for 1 h and 4 h, respectively, at 37 °C and 5% CO2. After incubation, the tumor cells were treated as described for the Ln-labeled biomolecules and processed for the measurement with ICP-MS.

[4] = system: non-tumor-bearing immunocompetent FVB mice; assay: Biodistribution of Ln-DTPA complexes (multiplexed ICP-MS); conditions: 1 h p.i.
[5] = Biodistribution of Ln-DOTATATE and Ln-DOTA-LM3 (multiplexed ICP-MS); conditions: female, CD1 nude, mouse, intravenous, 0.5 nmol, AR42J tumor-bearing mice; for tissue uptake at 1 h: 1 h p.i.; for tissue uptake at 24 h: 24 h p.i.
[6] = AR42J tumor, Tissue uptake: AR42J tumor
[7] = intestines, Tissue uptake: Intestines
[8] = kidneys, Tissue uptake: Kidneys
[9] = pancreas, Tissue uptake: Pancreas
[10] = salivary glands, Tissue uptake: Salivary glands

O=C([O-])CN1CCN(CC(=O)[O-])CCN(CC(=O)[O-])CCN(CC(=O)[O-])CC1.[Eu+3] [Eu-DOTA]
logK [1]: 23.4

O=C([O-])CN1CCN(CC(=O)[O-])CCN(CC(=O)[O-])CCN(CC(=O)[O-])CC1.[Tb+3] [Tb-DOTA]
logK [1]: 24.2

O=C([O-])CN(CCN(CC(=O)[O-])CC(=O)[O-])CCN(CC(=O)[O-])CC(=O)[O-].[Gd+3] [[^157Gd]Gd-DTPA]
Tissue uptake: Blood [2]: <0.5 % ID/g
Tissue uptake: Bone [2]: <0.5 % ID/g
Tissue uptake: Brain [2]: <0.5 % ID/g
Tissue uptake: Heart [2]: 0.55 ± 0.06 % ID/g
Tissue uptake: Intestines [2]: <0.5 % ID/g
Tissue uptake: Kidneys [2]: 2.1 ± 0.9 % ID/g
Tissue uptake: Liver [2]: <0.5 % ID/g
Tissue uptake: Lung [2]: 0.56 ± 0.12 % ID/g
Tissue uptake: Muscle [2]: 0.51 ± 0.07 % ID/g
Tissue uptake: Pancreas [2]: <0.5 % ID/g
Tissue uptake: Salivary glands [2]: <0.5 % ID/g
Tissue uptake: Spleen [2]: 0.52 ± 0.03 % ID/g
Tissue uptake: Stomach [2]: 0.77 ± 0.17 % ID/g
Lanthanide detected in cell samples (background levels) [3]: < 60 ppt

O=C([O-])CN1CCN(CC(=O)[O-])CCN(CC(=O)[O-])CCN(CC(=O)[O-])CC1.[Lu+3] [Lu-DOTA]
logK [1]: 25.4

O=C([O-])CN(CCN(CC(=O)[O-])CC(=O)[O-])CCN(CC(=O)[O-])CC(=O)[O-].[Eu+3] [[^153Eu]Eu-DTPA]
Tissue uptake: Blood [4]: <0.5 % ID/g
Tissue uptake: Bone [4]: <0.5 % ID/g
Tissue uptake: Brain [4]: <0.5 % ID/g
Tissue uptake: Heart [4]: <0.5 % ID/g
Tissue uptake: Intestines [4]: <0.5 % ID/g
Tissue uptake: Kidneys [4]: 2.1 ± 1.0 % ID/g
Tissue uptake: Liver [4]: <0.5 % ID/g
Tissue uptake: Lung [4]: <0.5 % ID/g
Tissue uptake: Muscle [4]: <0.5 % ID/g
Tissue uptake: Pancreas [4]: <0.5 % ID/g
Tissue uptake: Salivary glands [4]: <0.5 % ID/g
Tissue uptake: Spleen [4]: <0.5 % ID/g
Tissue uptake: Stomach [4]: 0.51 ± 0.07 % ID/g
Lanthanide detected in cell samples (background levels) [3]: < 20 ppt

O=C([O-])CN1CCN(CC(=O)[O-])CCN(CC(=O)O)CCN(CC(=O)[O-])CC1.[Gd+3] [Gd-DOTA]
logK [1]: 24.6

C[C@@H](O)[C@@H]1NC(=O)[C@H](CCCCN)NC(=O)[C@@H](Cc2ccc(NC(N)=O)cc2)NC(=O)[C@H](Cc2ccc(O)cc2)NC(=O)[C@H](NC(=O)[C@H](Cc2ccc(Cl)cc2)NC(=O)CN2CCN(CC(=O)O)CCN(CC(=O)O)CCN(CC(=O)O)CC2)CSSC[C@@H](C(=O)N[C@H](Cc2ccc(O)cc2)C(N)=O)NC1=O [[^175Lu]Lu-DOTA-LM3] ({DOTA}-[Phe(4-Cl)][dC]Y[dPhe(4-NHCONH2)]KTC[dY]-NH2; disulfide 2-7 (inferred); C-terminus assumed)
tissue uptake at 1 h [5, 6]: 4.5 ± 0.2 %ID/g
tissue uptake at 24 h [5, 6]: 2.7 ± 0.3 %ID/g
tissue uptake at 1 h ([5]; blood, Tissue uptake: Blood): 0.51 ± 0.1 %ID/g
tissue uptake at 24 h ([5]; blood, Tissue uptake: Blood): < 0.5 %ID/g
tissue uptake at 1 h ([5]; bone, Tissue uptake: Bone): < 0.5 %ID/g
tissue uptake at 24 h ([5]; bone, Tissue uptake: Bone): < 0.5 %ID/g
tissue uptake at 1 h ([5]; brain, Tissue uptake: Brain): < 0.5 %ID/g
tissue uptake at 24 h ([5]; brain, Tissue uptake: Brain): < 0.5 %ID/g
tissue uptake at 1 h ([5]; heart, Tissue uptake: Heart): < 0.5 %ID/g
tissue uptake at 24 h ([5]; heart, Tissue uptake: Heart): < 0.5 %ID/g
tissue uptake at 1 h [5, 7]: 0.6 ± 0.24 %ID/g
tissue uptake at 24 h [5, 7]: < 0.5 %ID/g
tissue uptake at 1 h [5, 8]: 11 ± 1 %ID/g
tissue uptake at 24 h [5, 8]: 4.8 ± 0.5 %ID/g
tissue uptake at 24 h ([5]; liver, Tissue uptake: Liver): < 0.5 %ID/g
tissue uptake at 24 h ([5]; lung, Tissue uptake: Lung): < 0.5 %ID/g
tissue uptake at 1 h ([5]; muscle, Tissue uptake: Muscle): < 0.5 %ID/g
tissue uptake at 24 h ([5]; muscle, Tissue uptake: Muscle): < 0.5 %ID/g
tissue uptake at 1 h [5, 9]: 1.1 ± 0.1 %ID/g
tissue uptake at 24 h [5, 9]: 0.51 ± 0.17 %ID/g
tissue uptake at 1 h [5, 10]: < 0.5 %ID/g
tissue uptake at 24 h [5, 10]: < 0.5 %ID/g
tissue uptake at 1 h ([5]; spleen, Tissue uptake: Spleen): < 0.5 %ID/g
tissue uptake at 24 h ([5]; spleen, Tissue uptake: Spleen): < 0.5 %ID/g
tissue uptake at 1 h ([5]; stomach, Tissue uptake: Stomach): 1.3 ± 0.2 %ID/g

O=C([O-])CN(CCN(CC(=O)[O-])CC(=O)[O-])CCN(CC(=O)[O-])CC(=O)[O-].[Tb+3] [[^159Tb]Tb-DTPA]
Tissue uptake: Blood [4]: <0.5 % ID/g
Tissue uptake: Bone [4]: <0.5 % ID/g
Tissue uptake: Brain [4]: <0.5 % ID/g
Tissue uptake: Heart [4]: <0.5 % ID/g
Tissue uptake: Intestines [4]: <0.5 % ID/g
Tissue uptake: Kidneys [4]: 2.1 ± 1.0 % ID/g
Tissue uptake: Liver [4]: <0.5 % ID/g
Tissue uptake: Lung [4]: <0.5 % ID/g
Tissue uptake: Muscle [4]: <0.5 % ID/g
Tissue uptake: Pancreas [4]: <0.5 % ID/g
Tissue uptake: Salivary glands [4]: <0.5 % ID/g
Tissue uptake: Spleen [4]: <0.5 % ID/g
Tissue uptake: Stomach [4]: <0.5 % ID/g
Lanthanide detected in cell samples (background levels) [3]: < 20 ppt

O=C([O-])CN(CCN(CC(=O)[O-])CC(=O)[O-])CCN(CC(=O)[O-])CC(=O)[O-].[Lu+3] [[^175Lu]Lu-DTPA]
Tissue uptake: Blood [4]: <0.5 % ID/g
Tissue uptake: Bone [4]: <0.5 % ID/g
Tissue uptake: Brain [4]: <0.5 % ID/g
Tissue uptake: Heart [4]: <0.5 % ID/g
Tissue uptake: Intestines [4]: <0.5 % ID/g
Tissue uptake: Kidneys [4]: 2.3 ± 1.0 % ID/g
Tissue uptake: Liver [4]: <0.5 % ID/g
Tissue uptake: Lung [4]: <0.5 % ID/g
Tissue uptake: Muscle [4]: <0.5 % ID/g
Tissue uptake: Pancreas [4]: <0.5 % ID/g
Tissue uptake: Salivary glands [4]: <0.5 % ID/g
Tissue uptake: Spleen [4]: <0.5 % ID/g
Tissue uptake: Stomach [4]: <0.5 % ID/g
Lanthanide detected in cell samples (background levels) [3]: < 20 ppt
